From patent publication US20080057010A1, “METHOD FOR SKIN CARE” (NULIV SCIENCE LTD., priority 2006, published 2008)

Columns and labels:
collagen I = test: Collagen I expression and secretion in human HDF cells (western blot); type: cell-based; conditions: relative to 0 = 1.00
Experimental: (§1) Primary human dermal fibroblasts cells (HDF) were purchased from Cascade Biologics (Portland, Oreg., USA) and cultured in medium 106 supplemented with 10% fetal bovine serum (FBS), 100 IU/mL penicillin, 100 μg/mL of streptomycin. The cells from passages 4 to 10 were used for this study. Culture medium was replaced every other day. After confluence, the cells were subcultured following trypsinization. For subcultures cells were harvested after brief treatment with 0.1% trypsin/EDTA solution and seeded at a dilution of 1:10. The cells were seeded at 1×10^5 cells in 6-well culture plate for 24 h before treated with astragalosides or crude extracts, such as butanol fraction and water insoluble fraction of Astragalus membranaceus for the indicated time periods. Control cultures were maintained in medium supplemented with vehicle (dimethyl sulfoxide, DMSO, 0.1%). No growth and differentiation effects of DMSO were observed under these culture conditions.
(§2) The cells were treated with pure compounds such as astragaloside I (AS 1), astragaloside II (AS2), astragaloside III (AS3), astragaloside IV (AS4), astragaloside VI (AS6), isoastragaloside I (isoAS1), isoastragaloside II (isoAS2), and cycloastragenol 6-O-β-D-glucopyranose (AA) at concentrations of 0-10 μM. Alternatively, the cells were also treated with the crude extracts, such as butanol fraction and water insoluble fraction of Astragalus membranaceus at concentrations of 0, 1, 10, and 40 μg/mL. The cells were treated with the indicated compounds or the extracts for 24 h before harvested for analysis of collagen I and III expressed in the whole cell extract or secreted into the culture medium.
(§3) Western blot analysis was carried out on both of cultured medium and cell lysates. The cells were plated on 6-cm dishes at a density of 1×10^6 cells/dish for 24 h prior to treatment with indicated concentrations of astragalus triterpenoids as indicated for another 48 h. The conditioned culture mediums were then centrifuged, 2-fold concentrated and collected for assay of collagens and MMPs secreted into the culture medium. The cells were washed and lysed in 0.2 mL of lysis buffer (1% NP-40, 50 mM Tris-HCl, pH 7.4, 180 mM NaCl, 1 mM EDTA, 1 mM PMSF, 1 mM NaF, 10 mM Na3VO4) for 30 min at 4° C. After centrifuging at 17500 g for 15 min, the supernatants of cell lysate were also collected. Protein concentration of the samples were measured using the bicinchoninic acid (BCA) protein assay kit according to the manufacturer's protocol (Pierce, Rockford, Ill., USA). Equal amount of protein samples of concentrated conditioned medium (100 μg) or cell lysate supernatants (50 μg) were mixed with an appropriate volume of 4×SDS sampling buffer and separated by 8% SDS-PAGE gel. The protein bands separated in the SDS-PAGE gel were blotted onto a polyvinylidene fluoride (PVDF) membrane. The blotted PVDF membrane was washed twice and blocked in freshly prepared Tris-buffered saline (TBS) containing 0.1% Tween-20 and 7% skim milk (TBST) for 2 h at room temperature. The PVDF membrane was then incubated with either antibodies against collagen I and III or the housekeeping protein α-tubulin (Santa Cruz Biotechnology, Santa Cruz, Calif.) for 18 h at 4° C. Horseradish peroxidase-conjugated anti-goat antibody was used as secondary antibody. Signals were visualized by an enhanced chemiluminescence kit (Clonetech, Palo Alto, Calif., USA) followed by exposure to X-ray films.
The collagen expression in the human HDF cells was also determined. […] And Collage I was over-expressed in the cells treated with various doses (1, 10, 40 μg/mL) of the crude extracts, such as butanol fraction and water insoluble fraction of Astragalus membranaceus.

collagen III = test: Collagen III expression and secretion in human HDF cells (western blot); type: cell-based; conditions: relative to 0 = 1.00
Experimental: as §1, §2, §3

MMP-1 = test: Quantitative analysis of MMP-1 transcripts in HDF cells (qRT-PCR); type: cell-based, human; conditions: 0.1 μM, MMP-1 mRNA relative to 0 = 1.00
Experimental: Relative levels of MMP-1 expression in HDF cells were determined by qRT-PCR. Preparation of total RNA and cDNA were carried out as described in previous sections. qRT-PCR was performed using the Applied Biosystem 7300 system and pre-developed Taqman Gene Expression Assays (Applied Biosystems, Foster City, Calif., USA). The reaction was performed as described in previous sections except that primer mix for human MMP-1 (assay ID HS00233958_m1, Applied Biosystems) and GAPDH (assay ID Hs99999905_m1, Applied Biosystems) were used.
Results shown in Tables 6A and 6B represent the quantitated data from zymography analysis of MMP-2 protein in HaCaT cells and qRT-PCR for MMP-1 in HDF cells. The concentrations used were 0, 0.01. 0.1, 1 μM (if not indicated otherwise) for pure compounds; and were 0, 1, 10, 40 μg/mL for crude extract (if not indicated otherwise). The cells were treated with the indicated compounds for 24 h before harvested for analysis of Pro-MMP-2 or activated MMP-2 in whole cell extract. Fifty micrograms of the cell extract samples were used for electrophoresis.

Row | Molecule | Collagen I in cell (collagen I; 0.01 μM) | Collagen I in medium (collagen I; 0.01 μM) | Collagen I in cell (collagen I; 0.1 μM) | Collagen I in medium (collagen I; 0.1 μM) | Collagen I in cell (collagen I; 1 μM) | Collagen I in medium (collagen I; 1 μM) | Collagen III in medium (collagen III; 0.01 μM) | Collagen III in medium (collagen III; 0.1 μM) | Collagen III in medium (collagen III; 1 μM) | Collagen III in cell (collagen III; 0.01 μM) | Collagen III in cell (collagen III; 0.1 μM) | Collagen III in cell (collagen III; 1 μM) | MMP-1 Q-PCR (MMP-1)
1 | CC(C)(O)[C@@H]1CC[C@](C)([C@H]2[C@@H](O)C[C@@]3(C)[C@@H]4C[C@H](O[C@@H]5O[C@H](CO)[C@@H](O)[C@H](O)[C@H]5O)[C@H]5C(C)(C)[C@@H](O[C@@H]6OC[C@@H](O)[C@H](O)[C@H]6O)CC[C@@]56C[C@@]46CC[C@]23C)O1 [AS4, astragaloside IV] | 1.16 | 1.24 | 1.33 | 1.11 | 1.07 | 1.11 |  |  |  |  |  |  | 
2 | CC(C)(O)[C@@H]1CC[C@](C)([C@H]2[C@@H](O)C[C@@]3(C)[C@@H]4C[C@H](O)[C@H]5C(C)(C)[C@@H](O[C@@H]6OC[C@@H](O)[C@H](O)[C@H]6O[C@@H]6O[C@H](CO)[C@@H](O)[C@H](O)[C@H]6O)CC[C@@]56C[C@@]46CC[C@]23C)O1 [AS3, astragaloside III] |  |  |  |  |  |  | 2.18 | 1.79 | 1.51 |  |  |  | 
3 | astragaloside I [AS1] |  |  |  |  |  |  | 1.38 | 1.19 | 1.77 | 1.16 | 1.08 | 1.18 | 0.75
4 | CC(C)(O)[C@@H]1CC[C@](C)([C@H]2[C@@H](O)C[C@@]3(C)[C@@H]4C[C@H](O[C@@H]5O[C@H](CO)[C@@H](O)[C@H](O)[C@H]5O)[C@H]5C(C)(C)[C@@H](O[C@@H]6OC[C@@H](O)[C@H](O)[C@H]6O[C@@H]6O[C@H](CO)[C@@H](O)[C@H](O)[C@H]6O)CC[C@@]56C[C@@]46CC[C@]23C)O1 [AS6, astragaloside VI] | 1.18 | 1.19 | 1.41 | 1.29 | 1.30 | 1.25 |  |  |  | 1.65 | 1.37 | 0.95 | 
5 | CC(=O)O[C@H]1[C@H](O[C@H]2CC[C@]34C[C@]35CC[C@]3(C)[C@@H]([C@@]6(C)CC[C@@H](C(C)(C)O)O6)[C@@H](O)C[C@@]3(C)[C@@H]5C[C@H](O[C@@H]3O[C@H](CO)[C@@H](O)[C@H](O)[C@H]3O)[C@H]4C2(C)C)OC[C@@H](OC(C)=O)[C@@H]1O [isoAS1, isoastragaloside I] | 0.71 | 1.20 | 1.11 | 1.08 | 1.27 | 0.96 |  |  |  |  |  |  | 0.6
6 | CC(=O)O[C@H]1[C@H](O[C@H]2CC[C@]34C[C@]35CC[C@]3(C)[C@@H]([C@@]6(C)CC[C@@H](C(C)(C)O)O6)[C@@H](O)C[C@@]3(C)[C@@H]5C[C@H](O[C@@H]3O[C@H](CO)[C@@H](O)[C@H](O)[C@H]3O)[C@H]4C2(C)C)OC[C@@H](O)[C@@H]1O [AS2, astragaloside II] | 1.02 | 1.24 | 0.73 | 1.15 | 1.26 | 1.02 | 1.26 | 1.74 | 0.94 |  |  |  | 0.25
7 | CC(=O)O[C@@H]1[C@@H](O)[C@H](O[C@H]2CC[C@]34C[C@]35CC[C@]3(C)[C@@H]([C@@]6(C)CC[C@@H](C(C)(C)O)O6)[C@@H](O)C[C@@]3(C)[C@@H]5C[C@H](O[C@@H]3O[C@H](CO)[C@@H](O)[C@H](O)[C@H]3O)[C@H]4C2(C)C)OC[C@H]1O [isoAS2, isoastragaloside II] |  |  |  |  |  |  | 1.00 | 1.07 | 1.18 |  |  |  | 0.71
